Reference: US7199121B2, “Protein tyrosine phosphatase inhibitor” (Institute of Molecular and Cell Biology, priority 2000, dated 2007)

Tests used:
[1] = system: Curvualaria sp.; assay: Antimicrobial activity, Curvualaria sp.; type: cell-based; conditions: 50 μM or 100 μM
[2] = molecular target: T1, TCPTP (Homo sapiens, UniProt P17706); assay: Phosphatase assay (pNPP dephosphorylation), TCPTP
T1 sequence (P17706 1-317 limits assumed): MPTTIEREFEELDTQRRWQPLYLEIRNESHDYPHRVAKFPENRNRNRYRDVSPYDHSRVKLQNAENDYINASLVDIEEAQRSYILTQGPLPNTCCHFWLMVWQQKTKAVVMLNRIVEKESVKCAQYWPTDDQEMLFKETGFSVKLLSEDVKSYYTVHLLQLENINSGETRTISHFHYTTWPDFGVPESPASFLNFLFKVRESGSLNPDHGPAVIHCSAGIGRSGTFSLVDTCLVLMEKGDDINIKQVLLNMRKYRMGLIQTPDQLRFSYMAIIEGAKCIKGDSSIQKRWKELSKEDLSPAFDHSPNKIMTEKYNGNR
Protocol: (§1) Dephosphorylation of pNPP was measured in 450 μL reactions containing 50 mM sodium acetate (pH 5.5, or pH 7 for CIP), 0.5 mg/mL BSA, 0.5 μM dithiothreitol, and 2 mM pNPP. Reactions with IPP also contained 2 mM Mn^2+. […] All reactions were carried out at 30° C. and terminated during the linear portion of the reaction.
(§2) [nM] refers to the concentration of phosphatase assayed. The numbers indicate percentage activities relative to respective control reactions without addition of 3, 4, or Na3VO4. The numbers represent the average of the activities measured with three separate enzyme preparations, each of which was assayed in duplicate±S.D.

[3] = molecular target: εD1D2 (Homo sapiens, UniProt P23469); assay: Phosphatase assay (pNPP dephosphorylation), PTPε D1D2
Sequence of εD1D2 (P23469 70-700 limits assumed): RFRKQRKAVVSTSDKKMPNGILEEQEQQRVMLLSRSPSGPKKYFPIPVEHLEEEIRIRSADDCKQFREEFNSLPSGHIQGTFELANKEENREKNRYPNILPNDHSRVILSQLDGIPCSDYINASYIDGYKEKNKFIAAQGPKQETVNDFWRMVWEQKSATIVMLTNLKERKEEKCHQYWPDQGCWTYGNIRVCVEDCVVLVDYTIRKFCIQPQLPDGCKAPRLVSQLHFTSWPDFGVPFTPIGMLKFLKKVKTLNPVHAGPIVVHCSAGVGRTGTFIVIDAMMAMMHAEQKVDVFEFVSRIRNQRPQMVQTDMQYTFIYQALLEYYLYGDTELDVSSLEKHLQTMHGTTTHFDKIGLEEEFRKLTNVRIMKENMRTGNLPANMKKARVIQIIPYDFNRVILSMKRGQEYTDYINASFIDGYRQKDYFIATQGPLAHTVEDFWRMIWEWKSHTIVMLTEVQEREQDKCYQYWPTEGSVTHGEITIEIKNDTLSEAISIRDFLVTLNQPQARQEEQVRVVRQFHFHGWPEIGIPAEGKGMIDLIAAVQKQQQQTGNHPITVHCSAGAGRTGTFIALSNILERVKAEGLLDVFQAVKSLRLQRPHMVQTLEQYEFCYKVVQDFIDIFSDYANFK
Protocol: (§3) All other PTPs described in the text were purchased from New England Biolabs. Dephosphorylation of pNPP was measured in 450 μL reactions containing 50 mM sodium acetate (pH 5.5, or pH 7 for CIP), 0.5 mg/mL BSA, 0.5 μM dithiothreitol, and 2 mM pNPP. Reactions with IPP also contained 2 mM Mn^2+. […] All reactions were carried out at 30° C. and terminated during the linear portion of the reaction.
as §2

[4] = molecular target: T2, λPP (Escherichia phage lambda, UniProt P03772); assay: Phosphatase assay (pNPP dephosphorylation), λPP
T2 sequence (P03772 1-221): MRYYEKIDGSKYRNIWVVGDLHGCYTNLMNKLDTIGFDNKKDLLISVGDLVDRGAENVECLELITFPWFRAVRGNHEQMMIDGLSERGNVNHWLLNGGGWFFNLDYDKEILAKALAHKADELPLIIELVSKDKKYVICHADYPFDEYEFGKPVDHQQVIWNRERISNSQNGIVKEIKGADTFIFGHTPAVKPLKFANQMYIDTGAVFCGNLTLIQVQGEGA
Protocol: as §3, §2

[5] = system: CIP; assay: Phosphatase assay (pNPP dephosphorylation, pH 7), CIP
Protocol: as §3, §2

[6] = molecular target: T3, LAR-D1 (Homo sapiens, UniProt P10586); assay: Phosphatase assay (pNPP dephosphorylation), LAR-D1
T3 sequence (P10586 1352-1607 limits assumed): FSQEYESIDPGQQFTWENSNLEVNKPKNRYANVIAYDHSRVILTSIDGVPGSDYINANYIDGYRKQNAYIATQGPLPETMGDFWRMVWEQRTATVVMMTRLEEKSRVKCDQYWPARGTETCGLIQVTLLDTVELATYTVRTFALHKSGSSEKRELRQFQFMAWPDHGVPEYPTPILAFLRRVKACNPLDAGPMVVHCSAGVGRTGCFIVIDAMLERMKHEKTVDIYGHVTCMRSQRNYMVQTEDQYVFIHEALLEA
Protocol: as §1, §2

[7] = system: PTP; assay: Bioassay for PTP inhibitory activity; type: biochemical
Protocol: HTS for inhibitory activity towards PTPα was performed in 96 well plates (Nunclon). Dephosphorylation of the substrate (pNPP) was measured in 180 μL reactions/well in assay buffer containing 50 mM sodium acetate (pH 5.5), 0.5 mg/mL BSA and 0.5 mM dithiothreitol. The purified enzyme PTPα (0.3 μg/well) and extracts (5 μL in 50% methanol) were preincubated for 5–10 min at room temperature in a volume of 170 μl. Reactions were initiated by adding 10 μL of substrate in assay buffer to a final concentration of 2 mM. For each plate, 6 reference control wells containing PTPα were preincubated with 5 μL 50% methanol at the same time as the test samples. As a positive control for PTPα inhibition, 1 μM Na3VO4, a potent inhibitor of PTPs, was added to some wells. Blank wells contained 5 μL 50% methanol, 2 mM pNPP in assay buffer and no enzyme. For each set of experiments (from 2–5 plates), reference controls in a separate plate were read at different time points to check the linearity of the reaction. Reactions were stopped with 25 μL KH2PO4 after 45–60 mins incubation at room temperature. The plates were read immediately in a multilabel counter (Wallac 1420 Victor). The OD405 of the reference wells ranged between 0.7–1.2, which represents <10% conversion of the substrate and falls within the linear part of the reaction. Percentage inhibition was determined using the formula: % Inhibition=[{(OD ref−OD blank)−(OD test−OD blank)}/(OD ref−OD blank)]×100 Phosphatase Assay: […]

[8] = system: Pseudomonas aeruginosa; assay: Antimicrobial activity, Pseudomonas aeruginosa; type: cell-based; conditions: 50 μM or 100 μM
[9] = system: Mycobacterium smegmatis; assay: Antimicrobial activity, Mycobacterium smegmatis; type: cell-based; conditions: 50 μM or 100 μM
[10] = molecular target: T4, CD45 (Homo sapiens, UniProt P08575); assay: Phosphatase assay (pNPP dephosphorylation), CD45
T4 sequence (P08575 599-1306 limits assumed): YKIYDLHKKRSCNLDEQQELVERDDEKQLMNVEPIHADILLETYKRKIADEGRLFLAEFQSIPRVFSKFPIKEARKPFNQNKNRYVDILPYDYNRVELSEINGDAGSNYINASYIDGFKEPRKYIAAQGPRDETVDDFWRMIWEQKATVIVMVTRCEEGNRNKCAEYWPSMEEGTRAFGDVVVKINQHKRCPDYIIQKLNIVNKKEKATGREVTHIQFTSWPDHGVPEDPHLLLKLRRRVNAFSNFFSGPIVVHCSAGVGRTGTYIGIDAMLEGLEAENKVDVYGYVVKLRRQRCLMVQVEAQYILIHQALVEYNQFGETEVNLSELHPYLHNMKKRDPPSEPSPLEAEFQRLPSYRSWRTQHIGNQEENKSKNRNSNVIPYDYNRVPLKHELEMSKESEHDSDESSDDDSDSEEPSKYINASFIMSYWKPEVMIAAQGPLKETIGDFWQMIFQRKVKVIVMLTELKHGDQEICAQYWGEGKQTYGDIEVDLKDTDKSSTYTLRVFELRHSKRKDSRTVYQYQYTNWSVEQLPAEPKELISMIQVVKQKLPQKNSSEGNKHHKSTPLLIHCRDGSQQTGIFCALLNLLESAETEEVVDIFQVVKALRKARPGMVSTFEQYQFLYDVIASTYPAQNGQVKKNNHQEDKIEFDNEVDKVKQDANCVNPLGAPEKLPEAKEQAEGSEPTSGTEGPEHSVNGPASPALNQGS
Protocol: as §3, §2

[11] = system: Proteus vulgaris; assay: Antimicrobial activity, Proteus vulgaris; type: cell-based; conditions: 50 μM or 100 μM
[12] = system: Enterococcus faecalis; assay: Antimicrobial activity, Enterococcus faecalis; type: cell-based; conditions: 50 μM or 100 μM
[13] = molecular target: αD1D2 (Homo sapiens, UniProt P18433); assay: Phosphatase assay (pNPP dephosphorylation), PTPα D1D2
Sequence of αD1D2 (P18433 175-802): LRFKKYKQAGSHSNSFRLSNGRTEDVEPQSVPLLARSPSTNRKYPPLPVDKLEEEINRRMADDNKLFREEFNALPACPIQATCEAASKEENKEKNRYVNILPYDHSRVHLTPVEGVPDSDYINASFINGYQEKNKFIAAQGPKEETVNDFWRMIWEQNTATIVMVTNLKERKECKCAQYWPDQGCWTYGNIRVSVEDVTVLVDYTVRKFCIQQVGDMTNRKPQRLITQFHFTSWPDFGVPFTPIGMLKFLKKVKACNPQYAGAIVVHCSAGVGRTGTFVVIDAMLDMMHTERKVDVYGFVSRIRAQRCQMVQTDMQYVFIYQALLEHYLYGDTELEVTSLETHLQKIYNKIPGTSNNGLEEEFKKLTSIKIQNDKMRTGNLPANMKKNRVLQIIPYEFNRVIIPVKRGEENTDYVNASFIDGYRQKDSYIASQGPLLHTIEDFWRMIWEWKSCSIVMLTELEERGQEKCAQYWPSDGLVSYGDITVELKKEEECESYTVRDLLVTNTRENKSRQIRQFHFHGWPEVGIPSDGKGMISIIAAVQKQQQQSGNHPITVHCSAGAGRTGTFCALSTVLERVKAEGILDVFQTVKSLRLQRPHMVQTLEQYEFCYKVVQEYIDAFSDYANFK
Protocol: as §3, §2

[14] = system: Staphylococcus aureus; assay: Antimicrobial activity, Staphylococcus aureus; type: cell-based; conditions: 50 μM or 100 μM
[15] = system: Escherichia coli; assay: Antimicrobial activity, Escherichia coli; type: cell-based; conditions: 50 μM or 100 μM
[16] = system: Candida albicans; assay: Antimicrobial activity, Candida albicans; type: cell-based; conditions: 50 μM or 100 μM
[17] = 1 μM compound, phosphatase 1.0 nM, pNPP, average of three enzyme preparations ± S.D.
[18] = 1 μM compound, phosphatase 5.0 nM, pNPP, average of three enzyme preparations ± S.D.

Cn1nc2c(nc1=O)c(=O)n(C)c(=O)n2C [Compound 3, 2,8-dihydro-2,6,8-trimethyl-pyrimido[5,4-e]-1,2,4-triazine-3,5,7(6H)-trione]
antimicrobial activity against Curvualaria sp. [1]: no antimicrobial activity | percentage activity of TCPTP relative to control [2, 17]: 34 ± 1.0% | inhibition at 1 µM ([2]; read-out: inhibition of TC-PTP): ~65% | percentage activity of εD1D2 relative to control [3, 17]: 17 ± 4.0% | inhibition at 1 µM ([3]; read-out: inhibition of εD1D2): 83 to 85% | percentage activity of λPP relative to control [4, 18]: 48 ± 2.0% | inhibition at 1 µM ([4]; read-out: inhibition of λPP activity): ~50% | percentage activity of CIP relative to control ([5]; 1 μM compound, phosphatase 0.5 nM, pNPP, pH 7, average of three enzyme preparations ± S.D.): 100 ± 1.0% | effect on pNPP phosphatase activity of CIP ([5]; neutral pH): neither compound had any detectable effect | percentage activity of LAR-D1 relative to control [6, 18]: 17 ± 2.0% | inhibition at 1 µM ([6]; read-out: inhibition of LAR-D1): 83 to 85% | effect on in vitro activity of the PTPs tested ([7]; 1 μM, receptor and non-receptor PTPs): inhibited all the PTPs tested | PTP inhibitory activity in bioassay ([7]; isolated material, 1 and 2 contaminated with about 6-10% of 3): potent PTP inhibitor | antimicrobial activity against Pseudomonas aeruginosa [8]: no antimicrobial activity | antimicrobial activity against Mycobacterium smegmatis [9]: no antimicrobial activity | percentage activity of CD45 relative to control [10, 17]: 15 ± 2.5% | inhibition at 1 µM ([10]; read-out: inhibition of CD45): 83 to 85% | antimicrobial activity against Proteus vulgaris [11]: no antimicrobial activity | antimicrobial activity against Enterococcus faecalis [12]: no antimicrobial activity | percentage activity of αD1D2 relative to control [13, 18]: 17 ± 1.1% | PTP inhibition of αD1D2 at neutral pH ([13]; neutral pH, results not shown): continues to behave as a PTP inhibitor | inhibition at 1 µM ([13]; read-out: inhibition of αD1D2): 83 to 85% | antimicrobial activity against Staphylococcus aureus [14]: no antimicrobial activity | antimicrobial activity against Escherichia coli [15]: no antimicrobial activity | antimicrobial activity against Candida albicans [16]: no antimicrobial activity
